The assay addresses T1, ALK2 (Homo sapiens, UniProt Q04771).
T1 construct: purchased ThermoFisher Scientific (Life Technologies)
T1 sequence (Q04771 21-509): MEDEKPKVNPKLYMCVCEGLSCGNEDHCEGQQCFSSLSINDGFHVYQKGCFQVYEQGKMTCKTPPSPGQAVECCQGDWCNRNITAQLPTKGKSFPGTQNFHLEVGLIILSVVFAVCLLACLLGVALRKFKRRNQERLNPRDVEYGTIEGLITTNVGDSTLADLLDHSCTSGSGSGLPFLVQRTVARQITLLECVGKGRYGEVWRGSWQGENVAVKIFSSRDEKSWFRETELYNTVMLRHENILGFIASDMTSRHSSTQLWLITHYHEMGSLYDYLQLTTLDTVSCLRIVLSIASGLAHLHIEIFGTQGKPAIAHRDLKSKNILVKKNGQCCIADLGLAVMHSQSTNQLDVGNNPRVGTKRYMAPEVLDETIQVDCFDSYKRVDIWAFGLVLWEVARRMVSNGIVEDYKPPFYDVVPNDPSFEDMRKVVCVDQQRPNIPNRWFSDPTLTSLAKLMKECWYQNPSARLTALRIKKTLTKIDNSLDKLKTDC
Kind of assay: LanthaScreen Eu Kinase Binding Assay, ALK2 inhibition. Conditions: 1 micromolar concentration. As for the experimental part:
Biochemical assays to measure the inhibitory effects of the compounds were performed by ThermoFisher Scientific (Life Technologies). ALK2 inhibition was tested using LanthaScreen™ Eu Kinase Binding Assay screening protocol.
(TR-FRET usually uses a lanthanide donor and a delayed reading to cut background.)

Where only a bound is given, the exact number is not on record here.

The inhibition is the share of the control response that was lost under treatment. In turn, `COc1cc(-n2cnc(Nc3nc(C(C)C)nc4cccnc34)c2)cc(OC)c1OC` [Compound 83a, 2-isopropyl-N-(1-(3,4,5-trimethoxyphenyl)-1H-imidazol-4-yl)pyrido[3,2-d]pyrimidin-4-amine] yielded an inhibition at 1 µM of over 50%.

`C=C(C)c1nc(Nc2cn(-c3cc(OC)c(OC)c(OC)c3)cn2)c2sc(C)cc2n1` [Compound 84c, 6-methyl-2-(prop-1-en-2-yl)-N-(1-(3,4,5-trimethoxyphenyl)-1H-imidazol-4-yl)thieno[3,2-d]pyrimidin-4-amine]: the inhibition at 1 µM is over 50%.

Consider `COc1cc(-n2cnc(Nc3nc(C(C)C)nc4cc(C)sc34)c2)cc(OC)c1OC` [Compound 85a, 2-isopropyl-6-methyl-N-(1-(3,4,5-trimethoxyphenyl)-1H-imidazol-4-yl)thieno[3,2-d]pyrimidin-4-amine], for which the inhibition at 1 µM is over 50%. Compound `COc1cc(-n2cnc(Nc3nc(C(C)C)nc4c3CCNC4)c2)cc(OC)c1OC` [Compound 86a, 2-isopropyl-N-(1-(3,4,5-trimethoxyphenyl)-1H-imidazol-4-yl)-5,6,7,8-tetrahydropyrido[3,4-d]pyrimidin-4-amine] had an inhibition at 1 µM of over 50%. `COc1cc2nc(Nc3cn(-c4cc(OC)c(OC)c(OC)c4)cn3)nc(C(C)C)c2cc1OC` [Compound 87a, 4-isopropyl-6,7-dimethoxy-N-(1-(3,4,5-trimethoxyphenyl)-1H-imidazol-4-yl)quinazolin-2-amine] came in with an inhibition at 1 µM of over 50%. `C=C(C)c1nc2c(c(Nc3cn(-c4cc(OC)c(OC)c(OC)c4)cn3)n1)CCCC2` [Compound 88c, 2-(prop-1-en-2-yl)-N-(1-(3,4,5-trimethoxyphenyl)-1H-imidazol-4-yl)-5,6,7,8-tetrahydroquinazolin-4-amine] showed an inhibition at 1 µM of over 50%. Then `COc1cc(-n2cnc(Nc3nc(C(C)C)nc4c3CCCC4)c2)cc(OC)c1OC` [Compound 89a, 2-isopropyl-N-(1-(3,4,5-trimethoxyphenyl)-1H-imidazol-4-yl)-5,6,7,8-tetrahydroquinazolin-4-amine], with over 50%; and `C=C(C)c1nc(Nc2cn(-c3cc(OC)c(OC)c(OC)c3)cn2)nc2sccc12` [Compound 90b, 4-(prop-1-en-2-yl)-N-(1-(3,4,5-trimethoxyphenyl)-1H-imidazol-4-yl)thieno[2,3-d]pyrimidin-2-amine], with over 50%. `COc1cc(-n2cnc(Nc3nc(C(C)C)c4ccsc4n3)c2)cc(OC)c1OC` [Compound 91a, 4-isopropyl-N-(1-(3,4,5-trimethoxyphenyl)-1H-imidazol-4-yl)thieno[2,3-d]pyrimidin-2-amine] showed an inhibition at 1 µM of over 50%. Then `C=C(C)c1nc(Nc2cn(-c3cc(OC)c(OC)c(OC)c3)cn2)c2scc(C)c2n1` [Compound 92c, 7-methyl-2-(prop-1-en-2-yl)-N-(1-(3,4,5-trimethoxyphenyl)-1H-imidazol-4-yl)thieno[3,2-d]pyrimidin-4-amine], with over 50%. `COc1cc(-n2cnc(Nc3nc(C(C)C)nc4scnc34)c2)cc(OC)c1OC` [Compound 93a, 5-isopropyl-N-(1-(3,4,5-trimethoxyphenyl)-1H-imidazol-4-yl)thiazolo[5,4-d]pyrimidin-7-amine] displayed an inhibition at 1 µM of over 50%. As for `COc1cc(-n2cnc(Nc3nc(C(C)C)nc4c3ncn4C(C)C)c2)cc(OC)c1OC` [Compound 94a, 2,9-diisopropyl-N-(1-(3,4,5-trimethoxyphenyl)-1H-imidazol-4-yl)-9H-purin-6-amine], the figure is over 50%; as for `C=C(C)c1nc(Nc2cn(-c3cc(OC)c(OC)c(OC)c3)cn2)c2cc(F)ccc2n1` [Compound 95c, 6-fluoro-2-(prop-1-en-2-yl)-N-(1-(3,4,5-trimethoxyphenyl)-1H-imidazol-4-yl)quinazolin-4-amine], over 50%. As for `COc1cc(-n2cnc(Nc3nc(C(C)C)nc4c(C)csc34)c2)cc(OC)c1OC` [Compound 96a, 2-isopropyl-7-methyl-N-(1-(3,4,5-trimethoxyphenyl)-1H-imidazol-4-yl)thieno[3,2-d]pyrimidin-4-amine], the figure is over 50%.

On to `C=C(C)c1nc(Nc2cn(-c3cc(OC)c(OC)c(OC)c3)cn2)c2ccn(C(C)C)c2n1` [Compound 97c, 7-isopropyl-2-(prop-1-en-2-yl)-N-(1-(3,4,5-trimethoxyphenyl)-1H-imidazol-4-yl)-7H-pyrrolo[2,3-d]pyrimidin-4-amine], for which the inhibition at 1 µM is over 50%. As for `COc1cc(-n2cnc(Nc3nc(C(C)C)nc4c3ccn4C(C)C)c2)cc(OC)c1OC` [Compound 98a, 2,7-diisopropyl-N-(1-(3,4,5-trimethoxyphenyl)-1H-imidazol-4-yl)-7H-pyrrolo[2,3-d]pyrimidin-4-amine], the figure is over 50%; as for `COc1cc(-n2cnc(Nc3nc(C(C)C)nc4ccc(F)cc34)c2)cc(OC)c1OC` [Compound 99a, 6-fluoro-2-isopropyl-N-(1-(3,4,5-trimethoxyphenyl)-1H-imidazol-4-yl)quinazolin-4-amine], over 50%; as for `COc1cc(-n2cnc(Nc3nc(C(C)CCN(C)C)nc4c3cnn4C(C)C)c2)cc(OC)c1OC` (stereo not drawn) [Compound 100b, 6-(4-(dimethylamino)butan-2-yl)-1-isopropyl-N-(1-(3,4,5-trimethoxyphenyl)-1H-imidazol-4-yl)-1H-pyrazolo[3,4-d]pyrimidin-4-amine], over 50%. Then `COc1cc(-n2cnc(Nc3nc(C4CCN(C)C4)nc4c3cnn4C(C)C)c2)cc(OC)c1OC` (stereo not drawn) [Compound 101b, 1-isopropyl-6-(1-methylpyrrolidin-3-yl)-N-(1-(3,4,5-trimethoxyphenyl)-1H-imidazol-4-yl)-1H-pyrazolo[3,4-d]pyrimidin-4-amine], with over 50%. As for `COc1cc(-n2cnc(Nc3nc(C(C)C)nc4ncccc34)c2)cc(OC)c1OC` [Compound 102e, 2-isopropyl-N-(1-(3,4,5-trimethoxyphenyl)-1H-imidazol-4-yl)pyrido[2,3-d]pyrimidin-4-amine], the figure is over 50%; as for `CCOC(=O)CC(C)c1nc(Nc2cn(-c3cc(OC)c(OC)c(OC)c3)cn2)c2cnn(C(C)C)c2n1` (stereo not drawn) [Compound 103c, ethyl 3-(1-isopropyl-4-((1-(3,4,5-trimethoxyphenyl)-1H-imidazol-4-yl)amino)-1H-pyrazolo[3,4-d]pyrimidin-6-yl)butanoate], over 50%; as for `C=Cc1nc(Nc2cn(-c3cc(OC)c(OC)c(OC)c3)cn2)c2cnn(C(C)C)c2n1` [Compound 104a, 1-isopropyl-N-(1-(3,4,5-trimethoxyphenyl)-1H-imidazol-4-yl)-6-vinyl-1H-pyrazolo[3,4-d]pyrimidin-4-amine], over 50%.

`COc1cc(-n2cnc(NC3=NC(C(C)C)=NC4C=COC34)c2)cc(OC)c1OC` (stereo not drawn) [Compound 105a, 2-isopropyl-N-(1-(3,4,5-trimethoxyphenyl)-1H-imidazol-4-yl)-4a,7a-dihydrofuro[3,2-d]pyrimidin-4-amine]: the inhibition at 1 µM is over 50%.

In turn, `COc1cc(-n2cnc(Nc3nc(C(C)CC(=O)O)nc4c3cnn4C(C)C)c2)cc(OC)c1OC` (stereo not drawn) [Compound 106a, 3-(1-isopropyl-4-((1-(3,4,5-trimethoxyphenyl)-1H-imidazol-4-yl)amino)-1H-pyrazolo[3,4-d]pyrimidin-6-yl)butanoic acid] came in with an inhibition at 1 µM of over 50%. For `COc1cc(-n2cnc(Nc3nc(C(C)CC(=O)NC4CC4)nc4c3cnn4C(C)C)c2)cc(OC)c1OC` (stereo not drawn) [Compound 107a, N-cyclopropyl-3-(1-isopropyl-4-((1-(3,4,5-trimethoxyphenyl)-1H-imidazol-4-yl)amino)-1H-pyrazolo[3,4-d]pyrimidin-6-yl)butanamide], the inhibition at 1 µM is over 50%. As for `CNC(=O)CC(C)c1nc(Nc2cn(-c3cc(OC)c(OC)c(OC)c3)cn2)c2cnn(C(C)C)c2n1` (stereo not drawn) [Compound 108a, 3-(1-isopropyl-4-((1-(3,4,5-trimethoxyphenyl)-1H-imidazol-4-yl)amino)-1H-pyrazolo[3,4-d]pyrimidin-6-yl)-N-methylbutanamide], the figure is over 50%. As for `COc1cc(-n2cnc(Nc3nc(C(C)CC(=O)NCCO)nc4c3cnn4C(C)C)c2)cc(OC)c1OC` (stereo not drawn) [Compound 109a, N-(2-hydroxyethyl)-3-(1-isopropyl-4-((1-(3,4,5-trimethoxyphenyl)-1H-imidazol-4-yl)amino)-1H-pyrazolo[3,4-d]pyrimidin-6-yl)butanamide], the figure is under 50%.

On to `COc1cc(-n2cnc(Nc3cc(C4CC4)nc4c(C(C)C)cnn34)c2)cc(OC)c1OC` [Compound 110d, 5-cyclopropyl-3-isopropyl-N-(1-(3,4,5-trimethoxyphenyl)-1H-imidazol-4-yl)pyrazolo[1,5-a]pyrimidin-7-amine], for which the inhibition at 1 µM is under 50%. The compound `COc1cc(-n2cnc(Nc3nc(C4CC4)nc4c(C(C)C)cnn34)c2)cc(OC)c1OC` [Compound 111d, 2-cyclopropyl-8-isopropyl-N-(1-(3,4,5-trimethoxyphenyl)-1H-imidazol-4-yl)pyrazolo[1,5-a][1,3,5]triazin-4-amine] registered an inhibition at 1 µM of over 50%. As for `COc1cc(-n2cnc(Nc3nc(C4CC4)nc4c3cnn4C(C)(C)C)c2)cc(OC)c1OC` [Compound 112d, 1-(tert-butyl)-6-cyclopropyl-N-(1-(3,4,5-trimethoxyphenyl)-1H-imidazol-4-yl)-1H-pyrazolo[3,4-d]pyrimidin-4-amine], the figure is over 50%.

For the origin of these results see patent US20240270750A1, “IMIDAZOLE-CONTAINING INHIBITORS OF ALK2 KINASE” (BioCryst Pharmaceuticals, Inc., priority 2021, published 2024).
